The values that follow come from PubChem BioAssay AID330 (DTP/NCI, 2004).

The subject of this assay is P388 leukemia ip, CD2F1 mice, survival T/C. The assay can be described thus: NCI In Vivo Anticancer Drug Screen. Data for tumor model P388 Leukemia (intraperitoneal) in CD2F1 (CDF1) mice. Particulars: endpoint: median survival time, schedule: Q01DX009 (ip), vehicle: water, higher = longer survival. An outline of the steps: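 Mice carrying the transplanted tumor received test compound or vehicle. Survival was recorded in each group, and the value is the treated-group measurement divided by that of the vehicle-treated control group.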

Toxic doses and inconclusive results are not listed.

On to `CCOC(=O)C(=O)N(CCCNc1c2ccccc2nc2c(OC)cccc12)CCCNc1c2ccccc2nc2c(OC)cccc12`, for which the T/C is 120 % of control (dose: 1.25 mg/kg/injection), 120 % of control (dose: 2.5 mg/kg/injection) and 161 % of control (dose: 10.0 mg/kg/injection).
